SMILES strings stand for the structures.

The nature of this data set: GHS categories as the set defines them, by LD50: 1 up to 5, 2 up to 50, 3 up to 300, 4 up to 2000, 5 above 2000 mg/kg. Conditions: rat; in vivo; po.
`C=C(C)C(=O)OCCOCCOCCOCC` yielded a GHS category of 5.
With `CCCCC(CC)COCC(O)COc1ccc(-c2nc(-c3ccc(C)cc3C)nc(-c3ccc(C)cc3C)n2)c(O)c1` (configuration not stated) the figure was 5; with `O=C(Nc1ccc(Cl)c(Cl)c1)c1cc(Cl)cc(-c2ccccc2)c1O`, 4; with `CNC[C@@H]1CC[C@@H](N)[C@@H](O[C@H]2[C@H](O)[C@@H](O[C@H]3OC[C@](C)(O)[C@H](NC)[C@H]3O)[C@H](N)C[C@@H]2N)O1`, 5.
With `C=CCOc1c(Br)cc(C(C)(C)c2cc(Br)c(OCC=C)c(Br)c2)cc1Br` the figure was 5; with `COc1ccc(Cl)cc1NC(=O)CC(C)=O`, 5.
With `C=C(C)C(=O)OCCOC(=O)CC(C)=O` the figure was 5; with `CCCCCCCCCCCCC`, 5; with `CCOc1ccccc1NC(=O)C(=O)Nc1ccccc1CC`, 5.
On to `COc1ccc(C(=O)Nc2ccccc2)cc1N=Nc1c(O)c(C(=O)Nc2cc(Cl)ccc2OC)cc2ccccc12`, for which the GHS category came out at 5.
With `COc1cc(OC)nc(NC(=O)NS(=O)(=O)Cc2ccccc2C(=O)O)n1` the figure was 5.
On to `COC12C[C@@H](CO)CN(C)[C@@H]1Cc1cn(C(C)(C)C)c3cccc2c13` (some centres not stated), for which the GHS category came to 4.
As to `CC(C)C[C@H](NC(=O)CNC(=O)[C@H](Cc1ccc(O)cc1)NC(=O)[C@H](CO)NC(=O)[C@H](Cc1c[nH]c2ccccc12)NC(=O)[C@H](Cc1cnc[nH]1)NC(=O)[C@@H]1CCC(=O)N1)C(=O)N[C@@H](CCCN=C(N)N)C(=O)N1CCC[C@H]1C(=O)NCC(N)=O`, the GHS category is 5.
With `CCC(C)(C)c1ccc(OP(=O)(NC)OC)c(Cl)c1` (configuration not stated) the figure was 3; with `COC(=O)[C@H]1CCCO1`, 5; with `COC(=O)c1cc(F)ccc1[N+](=O)[O-]`, 5.
With `Cc1cc(C(C)(CC(=O)OCCOC(=O)CC(C)(c2ccc(O)c(C(C)(C)C)c2)c2ccc(O)c(C(C)(C)C)c2)c2ccc(O)c(C(C)(C)C)c2)cc(C(C)(C)C)c1O` (configuration not stated) the figure was 5.
With `CC(C)(c1ccccc1)C(C)(C)c1ccccc1` the figure was 5; with `CO/N=C(/C1=NOCCO1)c1ccccc1Oc1ncnc(Oc2ccccc2Cl)c1F`, 5.
`Cc1nc(N)sc1C(=O)N(C(C)C)C(C)C` came in with a GHS category of 4.
With `O=S(=O)(O)c1cc(Nc2nc(Nc3ccccc3)nc(Nc3ccccc3)n2)ccc1C=Cc1ccc(Nc2nc(Nc3ccccc3)nc(Nc3ccccc3)n2)cc1S(=O)(=O)O` the figure was 5; with `CON(C)C(=O)Nc1cc(C(C)(C)C)ns1`, 4; with `COc1ccc(C2NC(=O)C(C)S2)cc1` (configuration not stated), 5.
With `CC1OC(Cn2cncn2)(c2cc3ccccc3o2)OC1C` (configuration not stated) the figure was 4.
The molecule `CC(C)C1C(=O)N(c2ccccc2)N(c2ccc(O)cc2)C1=O` (configuration not stated) had a GHS category of 4.
On to `CCN(C(=O)CCCn1nnnc1C)C1CCCCC1`, for which the GHS category is given as 4.
With `CC(C)(c1cc(Br)c(O)c(Br)c1)c1cc(Br)c(O)c(Br)c1` the figure was 5.
With `CCCCCCCCC(O)CCO` (configuration not stated) the figure was 5; with `COc1ccc(OC(=O)c2ccccc2OC(N)=O)cc1`, 5.
Regarding `Nc1ncc(Br)cc1O`, the GHS category was found to be 5.
With `CCC(O)OCc1c(Cl)ccc(Cl)c1Cl` (configuration not stated) the figure was 5.
With `CN[C@@H]1[C@H](O)[C@H](NC)[C@H]2O[C@@]3(O)C(=O)C[C@@H](C)O[C@H]3O[C@@H]2[C@H]1O` the figure was 5; with `CCCCOc1nn(-c2cccc(C(F)(F)F)c2)c2ncccc12`, 4; with `CCOC(=O)C(Br)CC` (configuration not stated), 4.
Turning to `O=C=Nc1cccc2c(N=C=O)cccc12`, the GHS category came to 5.
The molecule `CSC(=O)c1c(C(F)F)nc(C(F)(F)F)c(C(=O)SC)c1CC(C)C` had a GHS category of 5.
With `COc1ccc(C(=O)OC2=C(C(=O)Nc3ccccn3)N(C)S(=O)(=O)c3ccsc32)cc1` the figure was 2.
Molecule `O=C(Nc1cc(Cl)c(NC(=O)c2cc3ccccc3c(N=Nc3cc(C(F)(F)F)ccc3Cl)c2O)cc1Cl)c1cc2ccccc2c(N=Nc2cc(C(F)(F)F)ccc2Cl)c1O` showed a GHS category of 5.
`c1cnn(-c2cc(-n3cccn3)ncn2)c1`: the GHS category worked out at 5.
With `C=C(C)C1CCC(C)C(OC(C)=O)C1` (configuration not stated) the figure was 5; with `N#Cc1cccc(C2=C3C(=O)NC(c4cccc(C#N)c4)=C3C(=O)N2)c1`, 5.
With `Clc1ccc(I)cc1Cc1ccc(OC2CCOC2)cc1` (configuration not stated) the figure was 5.
With `CCOC(=O)NC1CCCN(c2nc(N)c3cc(OC)c(OC)cc3n2)C1` (configuration not stated) the figure was 4.
In turn, `CCCCCCCC/C=C\CCCCCCCC(=O)N(C)CC(=O)O` came in with a GHS category of 5.
`CC(C)(Oc1ccc(Cl)cc1)C(=O)NC(=O)NCN1CCOCC1`: the GHS category is given as 5.
With `CC1CC(OC(=O)COc2cccc(C(F)(F)F)c2)CC(C)(C)C1` (configuration not stated) the figure was 5.
With `CCCCCCC(=O)OCC(CC)(COC(=O)CCCCCC)COC(=O)CCCCCC` the figure was 5; with `C=C(C)C1CCC(C)C(=O)C1` (configuration not stated), 5.
`CCC(=O)O[C@@H]1C=C2CCC3C(CCC4(C)C3CC[C@@H]4OC(=O)CC)C2CC1` (some centres not stated) showed a GHS category of 5.
With `CCOCCOCCOC(=O)C1CCC(C(=O)OCCOCCOCC)CC1` (configuration not stated) the figure was 5; with `COc1ccccc1C1C(Cl)C(=O)N1NC(=O)c1ccccc1O` (configuration not stated), 5; with `OCc1cncs1`, 5.
With `CCCCCCCCCCCOC(=O)c1ccccc1C(=O)OCCCCCCCCCCC` the figure was 5.
With `Cc1cccc(C)c1N(CCCC(=O)O)C(=O)c1ccccc1Cl` the figure was 5; with `O=C(CCl)N(c1ccccc1)c1c(Cl)cccc1Cl`, 5.
In the case of `C[C@]12CCC(=O)C=C1C=C[C@@H]1[C@@H]2CC[C@@]2(C)[C@H]1CC[C@@]21CCC(=O)O1`, the GHS category is 5.
In the case of `CCC(C(=O)Oc1cc(C)ccc1C(C)C)c1ccc(-c2ccccc2)cc1` (configuration not stated), the GHS category is reported as 5.
With `CC(C)CCC[C@@H](C)[C@H]1CC[C@H]2[C@@H]3CC=C4C[C@@H](O)CC[C@]4(C)[C@H]3CC[C@]12C` the figure was 5; with `FC(C(F)C(F)(F)C(F)(F)F)C(F)(F)F` (configuration not stated), 5.
With `CCOc1ccc(C(C)(C)COCc2cccc(Oc3ccccc3)c2)cc1` the figure was 5; with `CCOC(=O)C(=O)Nc1cc(SCCOC(=O)C(=O)OCC)nc(C)n1`, 4; with `CCCCCCCCC(=O)OCC`, 5.
For `O=C1C=CC(=NNc2ccc(N=Nc3ccc(-c4ccc(NN=C5C=CC(=O)C(C(=O)O)=C5)cc4)cc3)c3ccc(S(=O)(=O)O)cc23)C=C1`, the GHS category is recorded as 5.
With `CCC(C)CCC(C)(CC)OC(C)=O` (configuration not stated) the figure was 5; with `C#CCOC(=O)Nc1nc(N2CC=CCC2)cc2nc(=O)on12`, 5.
With `CCOc1c(N)c2c(c(OCC)c1OCC)C(C1c3c(cc4c(c3OC)OCO4)CCN1C)OC2=O` (configuration not stated) the figure was 5.
The molecule `CCOC(=O)CCCCC(=O)OCC` returned a GHS category of 4.
For `CCCCC1C=C(C)CC(C)O1` (configuration not stated), the GHS category amounted to 5.
With `OCCn1c(C=Cc2nc3ccccc3[nH]2)nc2ccccc21` the figure was 5; with `N#CCCn1ccnc1`, 4; with `CCCCCCCC(=O)OCCC(C)O` (configuration not stated), 2.
With `Cc1ccc(C(=O)O)c(Oc2ccccc2CC(=O)O)c1C` the figure was 5; with `CC(C)CCCC(C)C1CCC2C3CCC4CC(OP(=O)(O)O)CCC4(C)C3CCC12C` (configuration not stated), 5.
With `O=C1CCc2c(OCC(O)CN3CCC(Cc4ccccc4)CC3)ccc(Br)c2N1` (configuration not stated) the figure was 4; with `COc1cc([N+](=O)[O-])ccc1N=NC(C(C)=O)C(=O)Nc1ccccc1OC` (configuration not stated), 5.
On to `CC1Oc2cc(C(=O)c3ccccc3)ccc2N(C)C1=O` (configuration not stated), for which the GHS category is 5.
With `CNC(=C[N+](=O)[O-])NCCSCc1ccc(CN(C)C)o1` the figure was 5.
With `Nc1nc(/C(=C/CC(=O)O)C(=O)N[C@@H]2C(=O)N3C(C(=O)O)=CCS[C@H]23)cs1` the figure was 5.
With `CCC(=O)O[C@]1(C(=O)COC(C)=O)CC[C@H]2[C@@H]3C[C@H](C)C4=CC(=O)C=C[C@]4(C)[C@H]3[C@@H](O)C[C@@]21C` the figure was 5; with `CCCCCC(=O)Nc1ccc(Cc2ccccn2)c([N+](=O)[O-])c1`, 3; with `C[C@H]1CO[C@@](Cn2ccnc2)(c2cc3cc(Cl)cc(Cl)c3o2)O1`, 4.
`O=C(O)CNC(c1ccccc1)c1ccccc1`: the GHS category is 4.
With `O=C(O)C1C2C=CC(C2)C1C(=O)O` (configuration not stated) the figure was 5; with `O=C(NCc1ncc(C(F)(F)F)cc1Cl)c1c(Cl)cccc1Cl`, 5; with `OCC(CO)(CO)COCC(CO)(CO)CO`, 5.
With `OC(c1ccccc1)c1cccnc1Cl` (configuration not stated) the figure was 5.
With `CNC(=O)C(=NNc1cccc(Cl)c1Cl)C(C)=O` the figure was 5; with `CC(=O)[C@@]1(O)CC[C@H]2[C@@H]3C=C(Cl)C4=CC(=O)CC[C@]4(C)[C@H]3CC[C@@]21C`, 5; with `O=C(O)c1ccccc1Nc1ccc(O)c(C(F)(F)F)c1`, 5.
As for `CCCC(=O)N(C)C(=O)Oc1cccc2c1OC(C)(C)O2`, the GHS category is reported as 4.
With `NCC1(CC(=O)O)CCCCC1` the figure was 5; with `CN(CCO)S(=O)(=O)C(F)(F)C(F)(F)C(F)(F)C(F)(F)F`, 5; with `CC(=O)Nc1ccc(C2=NN(C(C)=O)C(C)Cc3cc4c(cc32)OCO4)cc1` (configuration not stated), 4.
For the molecule `Cc1ccc(C(=O)Oc2ccc(C(O)CNC(C)(C)C)cc2OC(=O)c2ccc(C)cc2)cc1` (configuration not stated), the GHS category was found to be 5.
Molecule `ClCC(Cl)C(Cl)(Cl)Cl` (configuration not stated) came in with a GHS category of 4.
In turn, `CCCCCCCCCl` returned a GHS category of 5.
Consider `O=C1/C(=C2\Nc3ccccc3C2=O)Nc2ccccc21`, for which the GHS category turned out to be 5.
